Data from patent US8637516B2 (IRM LLC, priority 2010, dated 2014).
Like-named read-outs stand apart in the source and are kept apart here.

How the values were obtained:
parental Ba/F3 cells = assay: Proliferation of parental (untransformed, wt) Ba/F3 cells (BAF3/WT); format: cell-based, murine; details: Mus musculus, Table 1, parental cells with IL3, 48 hours
How it was run: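 Parental Ba/F3 cells, maintained with mouse IL-3, were plated at 700 cells/well with compound (0.17 nM to 10 uM, 3-fold dilutions). After 48 h at 37 °C, proliferation was read by Bright-Glo luminescence.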

[1] = molecular target: T1, Ba/F3 cells transformed with human Tel-TrkA (Homo sapiens, UniProt P04629); assay: Proliferation of Ba/F3 cells transformed with human Tel-TrkA (Ba/F3 Tel-TrkA); format: cell-based
T1 construct: expressed in transfected cells; host or cells: Ba/F3 murine hematopoietic progenitor cells (luciferase expressing); the other entry of the earlier key: ETV6 (P41212, Transcription factor ETV6)
Source text: Compound dilutions were made in 384 well plates.
The emited luminiscence is quantified using ViewLux (PerkinElmer).

[2] = Rat PK (PO 10 mg/kg, IV 3 mg/Kg); format: in vivo; details: for F / clearance / half-life / Vd / AUC / Cmax: Rat; for F / AUC / Cmax: PO 10 mg/kg, MC/Tween 80 suspension; for F / clearance / half-life / Vd: IV 3 mg/Kg; for clearance / half-life / Vd / AUC / Cmax: in vivo; for Vd: read-out: Vss
[3] = Table 1, 48 hours, Bright Glo luminescence, read-out: Ba/F3 Tel-TrkA

T1 sequence (P04629 510-796 limits assumed): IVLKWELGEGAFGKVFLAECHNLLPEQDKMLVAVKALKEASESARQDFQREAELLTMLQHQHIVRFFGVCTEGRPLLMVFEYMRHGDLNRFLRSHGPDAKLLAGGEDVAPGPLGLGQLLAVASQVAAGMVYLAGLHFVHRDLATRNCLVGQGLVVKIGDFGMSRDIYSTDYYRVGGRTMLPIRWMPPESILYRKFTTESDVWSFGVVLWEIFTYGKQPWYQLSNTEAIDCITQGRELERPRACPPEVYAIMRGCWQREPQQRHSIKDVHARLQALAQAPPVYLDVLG

SMILES | IC50 [1, 3] | IC50 (parental Ba/F3 cells) | other results
CCNS(=O)(=O)c1cnc2ccc(N3CCC[C@@H]3c3cccc(F)c3)nn12 [X-237, (R)-N-ethyl-6-(2-(3-fluorophenyl)pyrrolidin-1-yl)imidazo[1,2-b]pyridazine-3-sulfonamide] | 3320 nM | > 10 µM | –
O=C(Nc1cnc2ccc(N3CC(F)(F)C[C@@H]3c3cccc(F)c3)nn12)Oc1ccccc1 [X-238] | 445 nM | > 10 µM | –
CCOC(=O)c1cnc2ccc(N3C[C@@H](F)C[C@@H]3c3ccc(F)c(F)c3)nn12 [X-239] | 194 nM | > 10 µM | –
NC(=O)c1cnc2ccc(N3C[C@@H](F)C[C@@H]3c3ccc(F)c(F)c3)nn12 [X-240] | 198 nM | > 10 µM | –
NC(=O)c1cnc2ccc(N3C[C@@H](F)C[C@@H]3c3cc(F)cc(F)c3)nn12 [X-241] | 3 nM | 6.7 µM | –
N#Cc1cc(F)cc([C@H]2C[C@H](F)CN2c2ccc3ncc(C(N)=O)n3n2)c1 [X-244] | 61 nM | > 10 µM | –
N#Cc1cnc2ccc(N3CC(F)(F)C[C@@H]3c3cccc(F)c3)nn12 [X-246, (R)-6-(4,4-difluoro-2-(3-fluorophenyl)pyrrolidin-1-yl)imidazo[1,2-b]pyridazine-3-carbonitrile] | 56 nM | > 10 µM | –
NC(=O)c1cnc2ccc(N3CC(F)(F)C[C@@H]3c3cccc(F)c3)nn12 [X-247, (R)-6-(4,4-difluoro-2-(3-fluorophenyl)pyrrolidin-1-yl)imidazo[1,2-b]pyridazine-3-carboxamide] | 34 nM | > 10 µM | –
NC(=O)NC(=O)c1cnc2ccc(N3CC(F)(F)C[C@@H]3c3cccc(F)c3)nn12 [X-248, (R)-N-carbamoyl-6-(4,4-difluoro-2-(3-fluorophenyl)pyrrolidin-1-yl)imidazo[1,2-b]pyridazine-3-carboxamide] | 19 nM | > 10 µM | –
CC(=O)Nc1cnc2ccc(N3CCC[C@@H]3c3cc(F)ccc3F)nn12 [reference compound] | – | – | F [2]: 1.5%; clearance [2]: 79.2 mL/min/kg; half-life [2]: 12 min; Vd [2]: 1 L/kg; AUC [2]: 0.087 µM·h; Cmax [2]: 61 nM

More lines, in order of falling IC50 [1, 3], values ahead:

IC50 [1, 3] | SMILES | IC50 (parental Ba/F3 cells) | other results
64 nM | CC(C)NC(=O)c1ccc(F)cc1C1CC(F)(F)CN1c1ccc2ncc(C(N)=O)n2n1 (stereo not shown) [X-250] | > 10 µM | –
44 nM | Fc1cccc([C@H]2CC(F)(F)CN2c2ccc3ncc(Br)n3n2)c1 [X-245, (R)-3-bromo-6-(4,4-difluoro-2-(3-fluorophenyl)pyrrolidin-1-yl)imidazo[1,2-b]pyridazine] | > 10 µM | –
18 nM | COC(=O)NC(=O)c1cnc2ccc(N3CC(F)(F)C[C@@H]3c3cccc(F)c3)nn12 [X-249] | > 10 µM | –
2 nM | CCOC(=O)c1cnc2ccc(N3C[C@@H](F)C[C@@H]3c3cc(F)cc(C#N)c3)nn12 [X-243] | > 10 µM | –
0.5 nM | NC(=O)c1cnc2ccc(N3C[C@@H](F)C[C@@H]3c3cc(F)ccc3F)nn12 [X-242] | 2.45 µM | F [2]: 28.2%; clearance [2]: 18.4 mL/min/kg; half-life [2]: 74.4 min; Vd [2]: 1.58 L/kg; AUC [2]: 7.09 µM·h; Cmax [2]: 1730 nM; AUC compared with compound #3 of WO2010/033941 ([2]; in words): significant and unexpected increases; Cmax compared with compound #3 of WO2010/033941 ([2]; in words): significant and unexpected increases; IC50 ([1]; Table 2, read-out: Ba/F3_Te1-Trk-A): 0.5 nM
